Assays:
Puccinia recondita = assay: In vivo preventive test on Puccinia recondita (brown rust on wheat)
Experimental: Example C: In Vivo Preventive Test on Puccinia recondita (Brown Rust on Wheat) […]
The young plants of wheat are treated by spraying the active ingredient prepared as described above. […]
After 24 hours, the plants are contaminated by spraying the leaves with an aqueous suspension of Puccinia recondita spores. The contaminated wheat plants are incubated for 24 hours at 20° C. and at 100% relative humidity and then for 10 days at 20° C. and at 70-80% relative humidity.
The test is evaluated 11 days after the inoculation. 0% means an efficacy which corresponds to that of the control plants while an efficacy of 100% means that no disease is observed.

Botrytis cinerea = assay: In vivo preventive test on Botrytis cinerea (grey mould); conditions: gherkin; for protection: dose of 500 and 100 ppm of active ingredient
Experimental: Example B: In Vivo Preventive Test Botrvtis Cinerea (Grey Mould) Solvent: 5% by volume of Dimethyl sulfoxide • 10% by volume of Acetone Emulsifier: 1 μL of TWEEN® 80 per mg of active ingredient The active ingredients are made soluble and homogenized in a mixture of Dimethyl sulfoxide/Acetone/TWEEN® 80 and then diluted in water to the desired concentration. The young plants of gherkin are treated by spraying the active ingredient prepared as described above. Control plants are treated only with an aqueous solution of Acetone/Dimethyl sulfoxide/TWEEN® 80. After 24 hours, the plants are contaminated by spraying the leaves with an aqueous suspension of Botrytis cinerea spores. The contaminated gherkin plants are incubated for 4 to 5 days at 17° C. and at 90% relative humidity. The test is evaluated 4 to 5 days after the inoculation. 0% means an efficacy which corresponds to that of the control plants while an efficacy of 100% means that no disease is observed.

Uromyces appendiculatus = assay: In vivo preventive test on Uromyces appendiculatus (bean rust)
Experimental: Example G: In Vivo Preventive Test on Uromvces Appendiculatus (Bean Rust) Solvent: 5% by volume of Dimethyl sulfoxide • 10% by volume of Acetone Emulsifier: 1 μL of TWEEN® 80 per mg of active ingredient The active ingredients are made soluble and homogenized in a mixture of Dimethyl sulfoxide/Acetone/TWEEN® 80 and then diluted in water to the desired concentration. The young plants of bean are treated by spraying the active ingredient prepared as described above. Control plants are treated only with an aqueous solution of Acetone/Dimethyl sulfoxide/TWEEN® 80. After 24 hours, the plants are contaminated by spraying the leaves with an aqueous suspension of Uromyces appendiculatus spores. The contaminated bean plants are incubated for 24 hours at 20° C. and at 100% relative humidity and then for 10 days at 20° C. and at 70-80% relative humidity. The test is evaluated 11 days after the inoculation. 0% means an efficacy which corresponds to that of the control plants while an efficacy of 100% means that no disease is observed.

[1] = log P by HPLC on reversed-phase column (C 18), EEC Directive 79/831 Annex V.A8; format: physicochemical; conditions: HPLC C 18, 40° C., 0.1% aqueous formic acid and acetonitrile, gradient 10% to 90% acetonitrile
Experimental: In table 1, the log P values were determined in accordance with EEC Directive 79/831 Annex V.A8 by HPLC (High Performance Liquid Chromatography) on a reversed-phase column (C 18), using the method described below: Temperature: 40° C.; Mobile phases: 0.1% aqueous formic acid and acetonitrile; linear gradient from 10% acetonitrile to 90% acetonitrile. Calibration was carried out using unbranched alkan-2-ones (comprising 3 to 16 carbon atoms) with known log P values (determination of the log P values by the retention times using linear interpolation between two successive alkanones). lambda-max-values were determined using UV-spectra from 200 nm to 400 nm and the peak values of the chromatographic signals.

[2] = dose 500 ppm, in very similar conditions, prior-art analogues
[3] = dose 125 ppm, in very similar conditions, prior-art analogues
[4] = in very similar conditions, dose of 500 and 125 ppm, analogues of WO2009/016222 and WO2008/037789
[5] = very similar conditions, formulated in DMF with 2% of alkylarylpolyglycolether
[6] = in very similar conditions, dose of 500 and 100 ppm, analogues of WO2012/059497
[7] = wheat, compounds of this patent
[8] = dose 100 ppm, wheat, compounds of this patent
[9] = dose 500 ppm, wheat, compounds of this patent

With Cn1cc(C(=O)N(Cc2nc(-c3ccc(Cl)cc3)cs2)C2CC2)c(C(F)(F)F)c1 [28 from WO2008/015189, N-{[4-(4-chlorophenyl)-1,3-thiazol-2-yl]methyl}-N-cyclopropyl-1-methyl-4-(trifluoromethyl)-1H-pyrrole-3-carboxamide] the “Efficacy (Table C3)” value (Puccinia recondita; [2]) was 11%.

In the case of CCc1nn(C)c(F)c1C(=O)N(Cc1cn(-c2ccccc2)c2ccccc12)C1CC1 [29 from WO-2009/016222, N-cyclopropyl-3-ethyl-5-fluoro-1-methyl-N-[(1-phenyl-1H-indol-3-yl)methyl]-1H-pyrazole-4-carboxamide], the “Efficacy (Table C2)” value (Puccinia recondita; [3]) is reported as 22%, the “Efficacy (Table C2)” value (Puccinia recondita; [2]) is reported as 67% and the protection (Puccinia recondita; [4]) is reported as “good (at least 70%) to no protection”.

In the case of Cc1nn(C)c(F)c1C(=O)N(Cc1ccc(Oc2ccccc2)nc1)C1CC1 [35 from WO-2008/037789, N-cyclopropyl-5-fluoro-1,3-dimethyl-N-[(6-phenoxypyridin-3-yl)methyl]-1H-pyrazole-4-carboxamide], the “Efficacy (Table C2)” value (Puccinia recondita; [3]) is reported as 0%, the “Efficacy (Table C2)” value (Puccinia recondita; [2]) is reported as 0% and the protection (Puccinia recondita; [4]) is reported as “good (at least 70%) to no protection”.

For Cn1cc(C(=O)N(Cc2ccc(Oc3ccccc3)nc2)C2CC2)c(C(F)F)n1 [36 from WO-2008/037789, N-cyclopropyl-3-(difluoromethyl)-1-methyl-N-[(6-phenoxypyridin-3-yl)methyl]-1H-pyrazole-4-carboxamide], the “Efficacy (Table C2)” value (Puccinia recondita; [3]) was 0%, the “Efficacy (Table C2)” value (Puccinia recondita; [2]) was 0% and the protection (Puccinia recondita; [4]) was “good (at least 70%) to no protection”.

With Cc1nc(-c2ccc(Cl)cc2)sc1CN(C(=O)c1cn(C)nc1C(F)F)C1CC1 [45 from WO2008/015189, N-{[2-(4-chlorophenyl)-4-methyl-1,3-thiazol-5-yl]methyl}-N-cyclopropyl-3-(difluoromethyl)-1-methyl-1H-pyrazole-4-carboxamide] the “Efficacy (Table C3)” value (Puccinia recondita; [2]) was 0%.

For Cn1nc(C(=O)N(Cc2nc(-c3ccc(Cl)cc3)cs2)C2CC2)c(C(F)(F)F)n1 [50 from WO2008/015189, N-{[4-(4-chlorophenyl)-1,3-thiazol-2-yl]methyl}-N-cyclopropyl-2-methyl-5-(trifluoromethyl)-2H-1,2,3-triazole-4-carboxamide], the “Efficacy (Table C3)” value (Puccinia recondita; [2]) was 0%.

With Cn1cc(C(=O)N(Cc2nc(-c3ccc(Cl)cc3)cs2)C2CC2)c(C(F)(F)F)n1 [59 from WO2008/015189, N-{[4-(4-chlorophenyl)-1,3-thiazol-2-yl]methyl}-N-cyclopropyl-1-methyl-3-(trifluoromethyl)-1H-pyrazole-4-carboxamide] the “Efficacy (Table C3)” value (Puccinia recondita; [2]) was 0%.

For Cc1nn(-c2ccccc2)nc1CN(C(=O)c1c(C(F)F)nn(C)c1F)C1CC1 [131 from WO2012/059497, N-cyclopropyl-3-(difluoromethyl)-5-fluoro-1-methyl-N-[(5-methyl-2-phenyl-2H-1,2,3-triazol-4-yl)methyl]-1H-pyrazole-4-carboxamide], the “Efficacy at 100 ppm (Table C1)” value (Puccinia recondita; [5]) was 0%, the “Efficacy at 500 ppm (Table C1)” value (Puccinia recondita; [5]) was 11% and the protection (Puccinia recondita; [6]) was “good (at least 80%) to no protection”.

In the case of Cc1sc(-c2ccccc2)cc1C(C)N(C(=O)c1c(C(F)F)nn(C)c1F)C1CC1 (stereo not shown) [147 from WO2012/059497, N-cyclopropyl-3-(difluoromethyl)-5-fluoro-1-methyl-N-[1-(2-methyl-5-phenyl-3-thienyl)ethyl]-1H-pyrazole-4-carboxamide], the “Efficacy at 100 ppm (Table C1)” value (Puccinia recondita; [5]) is reported as 0%, the “Efficacy at 500 ppm (Table C1)” value (Puccinia recondita; [5]) is reported as 30% and the protection (Puccinia recondita; [6]) is reported as “good (at least 80%) to no protection”.

For Cn1nc(C(F)F)c(C(=O)N(Cc2cc(-c3ccc(Cl)cc3)no2)C2CC2)c1F [153 from WO2012/059497, N-{[3-(4-chlorophenyl)-1,2-oxazol-5-yl]methyl}-N-cyclopropyl-3-(difluoromethyl)-5-fluoro-1-methyl-1H-pyrazole-4-carboxamide], the “Efficacy at 100 ppm (Table C1)” value (Puccinia recondita; [5]) was 10%, the “Efficacy at 500 ppm (Table C1)” value (Puccinia recondita; [5]) was 80% and the protection (Puccinia recondita; [6]) was “good (at least 80%) to no protection”.

For Cn1nc(C(F)F)c(C(=O)N(Cc2cc3ccccc3n2-c2ccccc2)C2CC2)c1F [155 from WO2012/059497, N-cyclopropyl-3-(difluoromethyl)-5-fluoro-1-methyl-N-[(1-phenyl-1H-indol-2-yl)methyl]-1H-pyrazole-4-carboxamide], the “Efficacy at 100 ppm (Table C1)” value (Puccinia recondita; [5]) was 0%, the “Efficacy at 500 ppm (Table C1)” value (Puccinia recondita; [5]) was 20% and the protection (Puccinia recondita; [6]) was “good (at least 80%) to no protection”.

For Cn1nc(C(F)F)c(C(=O)N(Cc2cc(-c3cc(F)c(F)c(F)c3)no2)C2CC2)c1F [165 from WO2012/059497, N-cyclopropyl-3-(difluoromethyl)-5-fluoro-1-methyl-N-{[3-(3,4,5-trifluorophenyl)-1,2-oxazol-5-yl]methyl}-1H-pyrazole-4-carboxamide], the “Efficacy at 100 ppm (Table C1)” value (Puccinia recondita; [5]) was 0%, the “Efficacy at 500 ppm (Table C1)” value (Puccinia recondita; [5]) was 10% and the protection (Puccinia recondita; [6]) was “good (at least 80%) to no protection”.

In the case of Cc1nc(-c2ccc(Cl)cc2)sc1CN(C(=O)c1c(C(F)F)nn(C)c1F)C1CC1 [167 from WO2012/059497, N-{[2-(4-chlorophenyl)-4-methyl-1,3-thiazol-5-yl]methyl}-N-cyclopropyl-3-(difluoromethyl)-5-fluoro-1-methyl-1H-pyrazole-4-carboxamide], the “Efficacy at 100 ppm (Table C1)” value (Puccinia recondita; [5]) is reported as 0%, the “Efficacy at 500 ppm (Table C1)” value (Puccinia recondita; [5]) is reported as 0% and the protection (Puccinia recondita; [6]) is reported as “good (at least 80%) to no protection”.

In the case of Cn1nc(C(F)F)c(C(=O)N(Cc2ncc(C(F)(F)F)cc2-c2cccnc2)C2CC2)c1F [CMP2, N-cyclopropyl-3-(difluoromethyl)-5-fluoro-1-methyl-N-{[5-(trifluoromethyl)-3,3′-bipyridin-2-yl]methyl}-1H-pyrazole-4-carboxamide, reference compound], the “Efficacy (Table B1)” value (Botrytis cinerea; dose 100 ppm) is reported as 0%, the “Efficacy (Table B1)” value (Botrytis cinerea; dose 500 ppm) is reported as 0% and the protection (Botrytis cinerea) is reported as “no protection”. For the same compound, the “Efficacy (Table G1)” value (Uromyces appendiculatus; dose 100 ppm) was 0% and the “Efficacy (Table G1)” value (Uromyces appendiculatus; dose 500 ppm) was 0%.

With Cn1nc(C(F)F)c(C(=O)N(Cc2ncc(C(F)(F)F)cc2-c2ccncc2)C2CC2)c1F [CMP3, N-cyclopropyl-3-(difluoromethyl)-5-fluoro-1-methyl-N-{[5-(trifluoromethyl)-3,4′-bipyridin-2-yl]methyl}-1H-pyrazole-4-carboxamide, reference compound] the “Efficacy (Table B1)” value (Botrytis cinerea; dose 100 ppm) was 0%, the “Efficacy (Table B1)” value (Botrytis cinerea; dose 500 ppm) was 0% and the protection (Botrytis cinerea) was “no protection”. The “Efficacy (Table G1)” value (Uromyces appendiculatus; dose 100 ppm) was 0% and the “Efficacy (Table G1)” value (Uromyces appendiculatus; dose 500 ppm) was 17%.

With Cc1nc(C)c(-c2sccc2CN(C(=O)c2c(C(F)F)nn(C)c2F)C2CC2)s1 [I.11] the logP [1] was 2.88, the efficacy (Puccinia recondita; 500 ppm of active ingredient, wheat plants, evaluated 11 days after inoculation) was “at least 60%” and the “Efficacy (Table C3)” value (Puccinia recondita; dose 500 ppm, wheat, compound of this patent) was 69%.

In the case of Cn1nc(C(F)F)c(C(=O)N(Cc2ncc(C(F)(F)F)cc2-c2cccs2)C2CC2)c1F [I.19], the logP [1] is reported as 3.89, the “Efficacy (Table B1)” value (Botrytis cinerea; dose 100 ppm) is reported as 100% and the “Efficacy (Table B1)” value (Botrytis cinerea; dose 500 ppm) is reported as 95%. For the same compound, the “Efficacy (Table G1)” value (Uromyces appendiculatus; dose 100 ppm) was 100% and the “Efficacy (Table G1)” value (Uromyces appendiculatus; dose 500 ppm) was 100%.

With Cc1ccc(-c2cc(C(F)(F)F)cnc2CN(C(=O)c2c(C(F)F)nn(C)c2F)C2CC2)s1 [I.21] the logP [1] was 4.35, the “Efficacy at 100 ppm (Table C1)” value (Puccinia recondita; [7]) was 89% and the “Efficacy at 500 ppm (Table C1)” value (Puccinia recondita; [7]) was 98%.

In the case of COc1ccsc1-c1cc(C(F)(F)F)cnc1CN(C(=O)c1c(C(F)F)nn(C)c1F)C1CC1 [I.23], the logP [1] is reported as 3.89, the “Efficacy at 100 ppm (Table C1)” value (Puccinia recondita; [7]) is reported as 98% and the “Efficacy at 500 ppm (Table C1)” value (Puccinia recondita; [7]) is reported as 100%.

In the case of Cc1cscc1-c1cc(C(F)(F)F)cnc1CN(C(=S)c1c(C(F)F)nn(C)c1F)C1CC1 [I.37], the logP [1] is reported as 4.67, the “Efficacy (Table C2)” value (Puccinia recondita; [8]) is reported as 86% and the “Efficacy (Table C2)” value (Puccinia recondita; [9]) is reported as 93%.

For Cn1cc(C(=O)N(Cc2ncc(C(F)(F)F)cc2-c2ccsc2)C2CC2)c(C(F)F)n1 [I.41], the logP [1] was 3.42, the “Efficacy (Table C2)” value (Puccinia recondita; [8]) was 79% and the “Efficacy (Table C2)” value (Puccinia recondita; [9]) was 93%.

— patent US10076116B2, “N-cycloalkyl-N-(biheterocyclymethylene)-(thio)carboxamide derivatives” (BAYER CROPSCIENCE AKTIENGESELLSCHAFT, priority 2013, dated 2018)
